ChEMBL document CHEMBL4828722, “The synthesis and bioactivity of pyrrolo[2,3-d]pyrimidine derivatives as tyrosine kinase inhibitors for NSCLC cells with EGFR mutations” (Eur J Med Chem, 2021)
Activity calls are given as the source filed them. No cut-off for these calls is given here.

Assays:
HBE = test: Inhibition of AKT/S6 phosphorylation […] in human HBE cells at 5 uM incubated for 2 hrs by immunoblotting analysis; format: cell-based
HCC827 [1] = test: Induction of cell cycle arrest in human HCC827 cells harboring EGFR del E746-A750 mutant assessed as accumulation of cells in G2/M phase at 0.5 uM measured after 18 hrs by PI/RNaseA staining based flow cytometry analysis (Rvb= 16.78%); format: functional
BEAS-2B = test: Cytotoxicity against human BEAS-2B cells assessed as reduction in cell viability measured after 48 hrs by CCK8 assay; format: cell-based
A549 [2] = test: Induction of cell cycle arrest in human A549 cells harboring wild type EGFR assessed as accumulation of cells in G0/G1 phase at 0.5 uM measured after 18 hrs by PI/RNaseA staining based flow cytometry analysis (Rvb= 58.27%); format: functional
A549 [3] = test: Induction of cell cycle arrest in human A549 cells harboring wild type EGFR assessed as accumulation of cells in S phase at 0.5 uM measured after 18 hrs by PI/RNaseA staining based flow cytometry analysis (Rvb= 33.26%); format: functional
A549 [4] = test: Induction of cell cycle arrest in human A549 cells harboring wild type EGFR assessed as accumulation of cells in G2/M phase at 1 uM measured after 18 hrs by PI/RNaseA staining based flow cytometry analysis (Rvb= 8.47%); format: functional
A549 [5] = test: Induction of cell cycle arrest in human A549 cells harboring wild type EGFR assessed as accumulation of cells in G0/G1 phase at 5 uM measured after 18 hrs by PI/RNaseA staining based flow cytometry analysis (Rvb= 58.27%); format: functional
A549 [6] = test: Induction of cell cycle arrest in human A549 cells harboring wild type EGFR assessed as accumulation of cells in S phase at 5 uM measured after 18 hrs by PI/RNaseA staining based flow cytometry analysis (Rvb= 33.26%); format: functional
NCI-H1975 [7] = test: Induction of cell cycle arrest in human NCI-H1975 cells harboring EGFR L858R/T790M mutant assessed as accumulation of cells in S phase at 0.5 uM measured after 18 hrs by PI/RNaseA staining based flow cytometry analysis (Rvb= 39.78%); format: functional
NCI-H1975 [8] = test: Induction of cell cycle arrest in human NCI-H1975 cells harboring EGFR L858R/T790M mutant assessed as accumulation of cells in G2/M phase at 0.5 uM measured after 18 hrs by PI/RNaseA staining based flow cytometry analysis (Rvb= 17.33%); format: functional
NCI-H1975 [9] = test: Induction of cell cycle arrest in human NCI-H1975 cells harboring EGFR L858R/T790M mutant assessed as accumulation of cells in G2/M phase at 1 uM measured after 18 hrs by PI/RNaseA staining based flow cytometry analysis (Rvb= 17.33%); format: functional
NCI-H1975 [10] = test: Induction of cell cycle arrest in human NCI-H1975 cells harboring EGFR L858R/T790M mutant assessed as accumulation of cells in G0/G1 phase at 5 uM measured after 18 hrs by PI/RNaseA staining based flow cytometry analysis (Rvb= 42.69%); format: functional
NCI-H1975 [11] = test: Induction of cell cycle arrest in human NCI-H1975 cells harboring EGFR L858R/T790M mutant assessed as accumulation of cells in S phase at 5 uM measured after 18 hrs by PI/RNaseA staining based flow cytometry analysis (Rvb= 39.78%); format: functional
NCI-H1975 [12] = test: Induction of cell cycle arrest in human NCI-H1975 cells harboring EGFR L858R/T790M mutant assessed as accumulation of cells in G2/M phase at 5 uM measured after 18 hrs by PI/RNaseA staining based flow cytometry analysis (Rvb= 17.33%); format: functional
HCC827 [13] = test: Induction of cell cycle arrest in human HCC827 cells harboring EGFR del E746-A750 mutant assessed as accumulation of cells in S phase at 0.5 uM measured after 18 hrs by PI/RNaseA staining based flow cytometry analysis (Rvb= 33.62%); format: functional
HCC827 [14] = test: Induction of cell cycle arrest in human HCC827 cells harboring EGFR del E746-A750 mutant assessed as accumulation of cells in S phase at 1 uM measured after 18 hrs by PI/RNaseA staining based flow cytometry analysis (Rvb= 33.62%); format: functional
HCC827 [15] = test: Induction of cell cycle arrest in human HCC827 cells harboring EGFR del E746-A750 mutant assessed as accumulation of cells in G2/M phase at 5 uM measured after 18 hrs by PI/RNaseA staining based flow cytometry analysis (Rvb= 16.78%); format: functional
NCI-H1975 [16] = test: Induction of apoptosis in human NCI-H1975 cells harboring EGFR L858R/T790M mutant assessed as late apoptotic cells at 0.5 uM measured after 18 hrs by Annexin V-FITC/PI staining based flow cytometry analysis (Rvb= 0.1%); format: functional
NCI-H1975 [17] = test: Induction of apoptosis in human NCI-H1975 cells harboring EGFR L858R/T790M mutant assessed as dead cells at 5 uM measured after 18 hrs by Annexin V-FITC/PI staining based flow cytometry analysis (Rvb= […]); format: functional
NCI-H1975 [18] = test: Induction of apoptosis in human NCI-H1975 cells harboring EGFR L858R/T790M mutant assessed as total apoptotic cells at 5 uM measured after 18 hrs by Annexin V-FITC/PI staining based flow cytometry analysis (Rvb= 9.2%); format: functional
HCC827 [19] = test: Induction of apoptosis in human HCC827 cells harboring EGFR del E746-A750 mutant assessed as early apoptotic cells at 0.5 uM measured after 18 hrs by Annexin V-FITC/PI staining based flow cytometry analysis (Rvb= 9.6%); format: functional
HCC827 [20] = test: Induction of apoptosis in human HCC827 cells harboring EGFR del E746-A750 mutant assessed as late apoptotic cells at 0.5 uM measured after 18 hrs by Annexin V-FITC/PI staining based flow cytometry analysis (Rvb= 1.2%); format: functional
HCC827 [21] = test: Induction of apoptosis in human HCC827 cells harboring EGFR del E746-A750 mutant assessed as early apoptotic cells at 5 uM measured after 18 hrs by Annexin V-FITC/PI staining based flow cytometry analysis (Rvb= 9.6%); format: functional
[22] = biological target: Mitogen-activated protein kinase; ERK1/ERK2 (Homo sapiens) (UniProt P27361+P28482); test: Inhibition of ERK1/2 phosphorylation at Thr202/Tyr204 residue in human HBE cells at 5 uM incubated for 2 hrs by immunoblotting analysis; format: cell-based
Chain of Mitogen-activated protein kinase; ERK1/ERK2 (Homo sapiens) (P27361 whole entry, looked up): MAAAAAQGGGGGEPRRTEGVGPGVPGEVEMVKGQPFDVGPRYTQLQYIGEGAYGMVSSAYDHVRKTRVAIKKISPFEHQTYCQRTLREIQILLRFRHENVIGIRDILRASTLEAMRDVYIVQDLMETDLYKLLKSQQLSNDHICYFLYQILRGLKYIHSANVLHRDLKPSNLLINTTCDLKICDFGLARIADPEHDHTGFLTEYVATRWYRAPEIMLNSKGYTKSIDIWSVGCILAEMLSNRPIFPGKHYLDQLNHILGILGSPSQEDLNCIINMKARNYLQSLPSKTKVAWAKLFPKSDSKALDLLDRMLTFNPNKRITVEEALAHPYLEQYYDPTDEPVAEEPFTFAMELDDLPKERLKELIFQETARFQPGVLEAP
Chain of Mitogen-activated protein kinase; ERK1/ERK2 (Homo sapiens) (P28482 whole entry, looked up): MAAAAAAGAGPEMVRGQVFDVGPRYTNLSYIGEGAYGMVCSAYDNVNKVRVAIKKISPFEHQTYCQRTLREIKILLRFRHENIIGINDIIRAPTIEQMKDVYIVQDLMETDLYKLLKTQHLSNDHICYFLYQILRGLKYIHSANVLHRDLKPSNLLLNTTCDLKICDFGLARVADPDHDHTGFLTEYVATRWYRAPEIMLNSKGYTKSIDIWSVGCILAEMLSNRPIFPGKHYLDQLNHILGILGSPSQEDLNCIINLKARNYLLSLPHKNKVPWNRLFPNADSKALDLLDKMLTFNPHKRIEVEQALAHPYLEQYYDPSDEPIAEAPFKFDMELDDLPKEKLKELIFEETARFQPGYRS

[23] = biological target: Signal transducer and activator of transcription 3 (Homo sapiens) (UniProt P40763); test: Inhibition of STAT3 phosphorylation at Ser727 residue in human HBE cells at 5 uM incubated for 2 hrs by immunoblotting analysis; format: cell-based
Chain of Signal transducer and activator of transcription 3 (Homo sapiens) (P40763 whole entry): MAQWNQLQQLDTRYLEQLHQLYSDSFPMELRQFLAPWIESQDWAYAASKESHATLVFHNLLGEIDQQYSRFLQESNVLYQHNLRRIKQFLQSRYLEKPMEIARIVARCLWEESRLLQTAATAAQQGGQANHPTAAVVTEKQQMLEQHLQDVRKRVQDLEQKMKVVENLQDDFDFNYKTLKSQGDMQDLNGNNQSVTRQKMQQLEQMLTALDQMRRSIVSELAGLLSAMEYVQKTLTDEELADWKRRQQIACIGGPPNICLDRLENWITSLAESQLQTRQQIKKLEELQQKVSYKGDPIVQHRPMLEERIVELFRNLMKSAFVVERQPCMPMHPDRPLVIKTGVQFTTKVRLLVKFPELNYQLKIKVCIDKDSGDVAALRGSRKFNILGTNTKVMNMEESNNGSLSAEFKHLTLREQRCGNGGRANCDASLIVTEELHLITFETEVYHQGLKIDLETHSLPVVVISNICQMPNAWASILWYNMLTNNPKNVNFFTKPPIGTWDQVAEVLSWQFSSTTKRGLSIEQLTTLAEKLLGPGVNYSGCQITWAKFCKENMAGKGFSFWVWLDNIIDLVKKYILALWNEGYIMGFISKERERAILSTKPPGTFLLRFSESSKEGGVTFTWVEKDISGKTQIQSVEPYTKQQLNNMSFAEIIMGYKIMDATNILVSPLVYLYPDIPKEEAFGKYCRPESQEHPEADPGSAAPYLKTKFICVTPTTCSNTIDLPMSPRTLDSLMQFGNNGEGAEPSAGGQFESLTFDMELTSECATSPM

[24] = biological target: Ribosomal protein S6 kinase beta-1 (Homo sapiens) (UniProt P23443); test: Inhibition of P70S6K phosphorylation in human NCI-H1975 cells at 0.1 to 5 uM incubated for 2 hrs by immunoblotting analysis; format: cell-based; settings: dose 0.1-5 µM
Chain of Ribosomal protein S6 kinase beta-1 (Homo sapiens) (P23443 whole entry, looked up): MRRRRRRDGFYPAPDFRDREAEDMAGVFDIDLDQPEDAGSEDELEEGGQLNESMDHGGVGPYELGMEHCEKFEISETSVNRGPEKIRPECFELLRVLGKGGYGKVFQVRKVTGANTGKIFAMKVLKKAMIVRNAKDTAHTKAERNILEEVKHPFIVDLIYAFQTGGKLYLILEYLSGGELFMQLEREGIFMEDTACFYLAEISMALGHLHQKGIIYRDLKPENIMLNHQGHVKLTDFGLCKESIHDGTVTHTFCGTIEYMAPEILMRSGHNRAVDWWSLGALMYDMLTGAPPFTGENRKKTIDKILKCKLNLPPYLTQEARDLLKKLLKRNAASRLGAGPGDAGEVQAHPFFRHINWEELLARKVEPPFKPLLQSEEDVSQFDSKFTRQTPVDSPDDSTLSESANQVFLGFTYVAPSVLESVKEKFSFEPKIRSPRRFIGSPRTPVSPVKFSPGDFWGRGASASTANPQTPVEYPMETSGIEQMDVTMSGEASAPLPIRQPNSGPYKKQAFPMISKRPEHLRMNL

HCC827 [25] = test: Inhibition of AKT phosphorylation in human HCC827 cells at 0.1 to 5 uM incubated for 2 hrs by immunoblotting analysis; format: cell-based; settings: dose 0.1-5 µM
[26] = biological target: Ribosomal protein S6 kinase beta-1 (Homo sapiens) (UniProt P23443); test: Inhibition of P70S6K phosphorylation in human HCC827 cells at 0.1 to 5 uM incubated for 2 hrs by immunoblotting analysis; format: cell-based; settings: dose 0.1-5 µM

SMILES	inhibition (HBE)	Activity (HCC827 [1]) [%]	IC50 (BEAS-2B) [µM]	Activity (A549 [2]) [%]	Activity (A549 [3]) [%]	Activity (A549 [4]) [%]	Activity (A549 [5]) [%]	Activity (A549 [6]) [%]	Activity (NCI-H1975 [7]) [%]	Activity (NCI-H1975 [8]) [%]	Activity (NCI-H1975 [9]) [%]	Activity (NCI-H1975 [10]) [%]	Activity (NCI-H1975 [11]) [%]	Activity (NCI-H1975 [12]) [%]	Activity (HCC827 [13]) [%]	Activity (HCC827 [14]) [%]	Activity (HCC827 [15]) [%]	Activity (NCI-H1975 [16]) [%]	Activity (NCI-H1975 [17]) [%]	Activity (NCI-H1975 [18]) [%]	also measured
C=CC(=O)Nc1cccc(Oc2nc(Nc3ccc(N4CCN(C)CC4)c(N)c3)nc3[nH]ccc23)c1	inactive	10.04	7.8	60.45	29.06	9.7	85.05	6.86	19.32	16.64	11.6	80.62	10.15	9.23	15.39	20.39	7.95	0.3	2	16.1	Activity (HCC827 [19]): 11.1%; Activity (HCC827 [20]): 12.5%; Activity (HCC827 [21]): 12.1%; inhibition [22]: Active; inhibition [23]: inactive; inhibition [24]: Active; inhibition (HCC827 [25]): Active; inhibition [26]: Active
C=CC(=O)Nc1cccc(Oc2nc(Nc3ccc(N4CCN(C)CC4)c([N+](=O)[O-])c3)nc3[nH]ccc23)c1	inactive	8.5	3.68	62.63	27.39	8.33	82.55	8.2	20.79	14.32	14.81	80.34	10.03	9.63	14.31	10.81	14.12	0.3	1.8	13.5	Activity (HCC827 [19]): 12.4%; Activity (HCC827 [20]): 11.4%; Activity (HCC827 [21]): 10.9%; inhibition [22]: Active; inhibition [23]: inactive; inhibition [24]: Active; inhibition (HCC827 [25]): Active; inhibition [26]: Active
C=CC(=O)Nc1cccc(Oc2nc(Nc3ccc(N4CCN(C)CC4)c(F)c3)nc3[nH]ccc23)c1 [ABIVERTINIB]	inactive	9.53	3.68	59.82	30.03	8.97	77.6	14.85	21.24	17.05	17.13	79.06	9.8	11.14	15.36	15.37	8.82	1.2	2	11.7	Activity (HCC827 [19]): 12%; Activity (HCC827 [20]): 18.3%; Activity (HCC827 [21]): 13.8%; inhibition [22]: Active; inhibition [23]: inactive; inhibition [24]: Active; inhibition (HCC827 [25]): Active; inhibition [26]: Active
